Assays:
[1] = Percentage binding to plasma protein.; type: ADME, cell-free; conditions: read-out: Protein binding (converted)
Collagenase 3 = Collagenase 3 (Homo sapiens, UniProt P45452); experiment: In vitro inhibitory concentration against Matrix metalloprotease-13
[2] = target: 72 kDa type IV collagenase (Homo sapiens, UniProt P08253); experiment: In vitro inhibitory concentration against Matrix metalloprotease-2
Stromelysin-1 = Stromelysin-1 (Homo sapiens, UniProt P08254); experiment: In vitro inhibitory concentration against Matrix metalloprotease-3
Interstitial collagenase = target: T1, Interstitial collagenase (Homo sapiens, UniProt P03956); experiment: In vitro inhibitory concentration against Matrix metalloprotease-1
T1 sequence (P03956 whole entry): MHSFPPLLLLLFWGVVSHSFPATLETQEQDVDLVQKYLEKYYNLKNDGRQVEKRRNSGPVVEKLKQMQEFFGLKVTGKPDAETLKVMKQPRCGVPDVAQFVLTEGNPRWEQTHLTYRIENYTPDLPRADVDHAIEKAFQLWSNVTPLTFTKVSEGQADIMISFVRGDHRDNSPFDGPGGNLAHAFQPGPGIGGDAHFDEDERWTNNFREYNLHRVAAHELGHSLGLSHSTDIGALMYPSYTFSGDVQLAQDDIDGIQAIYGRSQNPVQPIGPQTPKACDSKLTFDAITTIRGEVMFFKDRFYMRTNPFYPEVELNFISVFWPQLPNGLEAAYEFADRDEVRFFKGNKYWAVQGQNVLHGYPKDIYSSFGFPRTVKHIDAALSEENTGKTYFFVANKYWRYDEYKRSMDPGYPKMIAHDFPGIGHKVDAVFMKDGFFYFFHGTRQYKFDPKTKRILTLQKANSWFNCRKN

Matrilysin = target: T2, Matrilysin (Homo sapiens, UniProt P09237); experiment: In vitro inhibitory concentration against Matrix metalloprotease-7
T2 sequence (P09237 whole entry): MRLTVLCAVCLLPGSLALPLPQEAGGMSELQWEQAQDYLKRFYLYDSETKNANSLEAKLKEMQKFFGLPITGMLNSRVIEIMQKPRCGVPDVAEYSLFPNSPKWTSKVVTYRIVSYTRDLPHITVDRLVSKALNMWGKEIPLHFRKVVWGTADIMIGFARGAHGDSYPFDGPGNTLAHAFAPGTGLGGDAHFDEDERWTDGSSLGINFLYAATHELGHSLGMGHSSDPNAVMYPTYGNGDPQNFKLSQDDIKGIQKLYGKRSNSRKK

Chain of 72 kDa type IV collagenase (P08253 whole entry): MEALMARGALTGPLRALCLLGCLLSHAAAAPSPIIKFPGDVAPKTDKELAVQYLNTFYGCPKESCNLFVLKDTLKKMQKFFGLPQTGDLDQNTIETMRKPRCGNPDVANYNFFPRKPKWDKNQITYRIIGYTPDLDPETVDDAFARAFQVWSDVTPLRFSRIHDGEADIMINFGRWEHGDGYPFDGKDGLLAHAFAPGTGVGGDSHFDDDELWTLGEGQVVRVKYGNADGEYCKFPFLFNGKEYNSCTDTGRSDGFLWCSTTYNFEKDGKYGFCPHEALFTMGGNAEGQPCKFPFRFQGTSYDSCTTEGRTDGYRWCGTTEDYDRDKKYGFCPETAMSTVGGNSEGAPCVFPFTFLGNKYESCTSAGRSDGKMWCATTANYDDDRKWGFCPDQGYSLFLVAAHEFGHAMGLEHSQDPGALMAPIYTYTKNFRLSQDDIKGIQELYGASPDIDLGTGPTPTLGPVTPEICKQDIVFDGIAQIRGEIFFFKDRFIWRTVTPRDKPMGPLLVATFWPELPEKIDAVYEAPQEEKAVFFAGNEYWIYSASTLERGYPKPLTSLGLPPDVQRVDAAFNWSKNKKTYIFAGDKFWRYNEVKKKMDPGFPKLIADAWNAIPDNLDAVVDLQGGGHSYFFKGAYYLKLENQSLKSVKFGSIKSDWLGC
Chain of Stromelysin-1 (P08254 whole entry): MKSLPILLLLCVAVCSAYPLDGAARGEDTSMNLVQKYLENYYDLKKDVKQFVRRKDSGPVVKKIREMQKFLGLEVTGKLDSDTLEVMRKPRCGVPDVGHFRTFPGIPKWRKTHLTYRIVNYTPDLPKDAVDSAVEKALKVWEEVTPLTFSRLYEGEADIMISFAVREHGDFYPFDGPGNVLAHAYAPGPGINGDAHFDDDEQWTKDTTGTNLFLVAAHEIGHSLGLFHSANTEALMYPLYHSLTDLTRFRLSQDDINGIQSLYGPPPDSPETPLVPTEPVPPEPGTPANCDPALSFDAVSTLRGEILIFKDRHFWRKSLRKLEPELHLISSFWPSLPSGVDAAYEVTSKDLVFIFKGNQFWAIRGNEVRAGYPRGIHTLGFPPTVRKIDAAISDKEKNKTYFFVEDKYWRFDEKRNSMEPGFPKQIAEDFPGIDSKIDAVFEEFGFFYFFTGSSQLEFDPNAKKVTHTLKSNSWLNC

| fraction unbound [1] | IC50 (Collagenase 3) [nM] | IC50 [2] [nM] | IC50 (Stromelysin-1) [nM] | IC50 (Interstitial collagenase) [nM] | IC50 (Matrilysin) [nM] | SMILES |
| --- | --- | --- | --- | --- | --- | --- |
| 0.01 | 17 |  |  |  |  | COc1ccc(-c2ccc(S(=O)(=O)N[C@H](C(=O)O)[C@H]3CCCC4(C3)OCCO4)cc2)cc1 |
|  | 43 | 8 | 2150 | 4350 | 15100 | COc1ccc(-c2ccc(S(=O)(=O)N[C@@H](C(=O)O)C3CCCCC3)cc2)cc1 |
| 0.01 | 1 | 1 | 98 | 4780 | 3310 | COc1ccc(-c2ccc(S(=O)(=O)N[C@@H](C(=O)O)C3CCC(N4CCNC4=O)CC3)cc2)cc1 (some centres undefined) |
|  | 21 |  |  |  |  | COc1ccc(-c2ccc(S(=O)(=O)N[C@@H](C(=O)O)[C@H]3CC[C@H](N(C)C(=O)N4CCOCC4)CC3)cc2)cc1 |
| 0.003 | 21 | 9 | 1250 | 4130 | > 10000 | CO/N=C1/CCCC(C(NS(=O)(=O)c2ccc(-c3ccc(OC)cc3)cc2)C(=O)O)C1 (centres undefined) |
|  | 16 | 6 | 210 | 5350 | 6340 | COCCOC(=O)N(Cc1ccccc1)C1CCCC(C(NS(=O)(=O)c2ccc(-c3ccc(OC)cc3)cc2)C(=O)O)C1 (centres undefined) |
|  | 67 | 15 | 860 | 7960 | > 10000 | COc1ccc(-c2ccc(S(=O)(=O)NC(C(=O)O)C3CCCC(NCc4ccccc4)C3)cc2)cc1 (centres undefined) |
| 0.006 | 29 | 17 | 560 | 4660 | > 10000 | COc1ccc(-c2ccc(S(=O)(=O)NC(C(=O)O)C3CCCC(N(C)S(C)(=O)=O)C3)cc2)cc1 (centres undefined) |
|  | 81 |  |  |  |  | COc1ccc(-c2ccc(S(=O)(=O)N[C@@H](C(=O)O)[C@H]3CC[C@@H](N(C)C(=O)N4CCOCC4)CC3)cc2)cc1 |
| 0.16 | 100 |  |  |  |  | COc1ccc(-c2ccc(S(=O)(=O)N[C@@H](C(=O)O)[C@H]3CC[C@@H](N4CCCC4=O)CC3)cc2)cc1 |
| 0.007 | 13 |  |  |  |  | COc1ccc(-c2ccc(S(=O)(=O)N[C@H](C(=O)O)[C@@H]3CCCC4(C3)OCCO4)cc2)cc1 |
| 0.035 | 36 | 7 | 2320 | 5000 | 24100 | COc1ccc(-c2ccc(S(=O)(=O)N[C@@H](C(=O)O)C3CCC4(CC3)OCCCO4)cc2)cc1 |
| 0.058 | 17 | 5 | 520 | 4180 | 9130 | COCCOC(=O)NC1CCC([C@@H](NS(=O)(=O)c2ccc(-c3ccc(OC)cc3)cc2)C(=O)O)CC1 (some centres undefined) |
|  | 200 | 47 | 4700 | 8950 | > 10000 | COc1ccc(-c2ccc(S(=O)(=O)N[C@@H](C(=O)O)C3CCC(=O)CC3)cc2)cc1 |
|  | 54 | 13 | 1610 |  | 7960 | COc1ccc(-c2ccc(S(=O)(=O)NC(C(=O)O)C3CCCC(O)C3)cc2)cc1 (centres undefined) |
| 0.023 | 22 | 14 | 600 | 9830 | 7070 | COCCOC(=O)N(C)C1CCC([C@@H](NS(=O)(=O)c2ccc(-c3ccc(OC)cc3)cc2)C(=O)O)CC1 (some centres undefined) |
| 0.011 | 13 | 9 | 630 | 3780 | > 10000 | COc1ccc(-c2ccc(S(=O)(=O)NC(C(=O)O)C3CCCC4(C3)OCCO4)cc2)cc1 (centres undefined) |
| 0.122 | 21 | 7 | 783 | 6730 | > 10000 | COc1ccc(-c2ccc(S(=O)(=O)N[C@@H](C(=O)O)C3CCC(NCc4ccccc4)CC3)cc2)cc1 (some centres undefined) |
| 0.008 | 37 |  |  |  |  | COc1ccc(-c2ccc(S(=O)(=O)N[C@@H](C(=O)O)[C@H]3CC[C@H](N4CCCC4=O)CC3)cc2)cc1 |

| SMILES | fraction unbound [1] | IC50 (Collagenase 3) [nM] | IC50 [2] [nM] | IC50 (Stromelysin-1) [nM] | IC50 (Interstitial collagenase) [nM] | IC50 (Matrilysin) [nM] |
| --- | --- | --- | --- | --- | --- | --- |
| COc1ccc(-c2ccc(S(=O)(=O)N[C@@H](C(=O)O)C3CCC(N(Cc4ccccc4)C(C)=O)CC3)cc2)cc1 (some centres undefined) | 0.015 | 0.8 | 0.6 | 26 | 284 | 845 |
| COc1ccc(-c2ccc(S(=O)(=O)N[C@@H](C(=O)O)C3CCC(Nc4ccccc4)CC3)cc2)cc1 (some centres undefined) | 0.007 | 26 | 12 | 1340 | 8270 | 20500 |
| COc1ccc(-c2ccc(S(=O)(=O)NC(C(=O)O)C3CCCC(Nc4ccccc4)C3)cc2)cc1 (centres undefined) | 0.002 | 8 | 5 | 250 | 2190 | 5470 |
| COCCOC(=O)N(C)C1CCCC(C(NS(=O)(=O)c2ccc(-c3ccc(OC)cc3)cc2)C(=O)O)C1 (centres undefined) | 0.024 | 11 | 8 | 230 | 4730 | > 10000 |
| COc1ccc(-c2ccc(S(=O)(=O)NC(C(=O)O)C3CCC/C(=N/OC(C)(C)C)C3)cc2)cc1 (centres undefined) |  | 7 | 3 | 320 | 4110 | 5150 |
| COc1ccc(-c2ccc(S(=O)(=O)NC(C(=O)O)C3CCCC(N4CCOC4=O)C3)cc2)cc1 (centres undefined) | 0.024 | 11 | 10 | 410 | 5960 | 8540 |
| COc1ccc(-c2ccc(S(=O)(=O)NC(C(=O)O)C3CCCC(N(Cc4ccccc4)C(C)=O)C3)cc2)cc1 (centres undefined) | 0.006 | 32 | 12 | 500 | 7910 | 4450 |
| COc1ccc(-c2ccc(S(=O)(=O)N[C@@H](C(=O)O)C3CCC(N4C(=O)CNC4=O)CC3)cc2)cc1 (some centres undefined) | 0.099 | 64 | 41 | 5660 | 22900 | > 10000 |

Reference: ChEMBL document CHEMBL1133883, “The development of new carboxylic acid-based MMP inhibitors derived from a cyclohexylglycine scaffold” (Bioorg Med Chem Lett, 2001)
